Values of other authors as cited in US20180110725A1, “COMPOSITIONS, METHODS AND KITS FOR THE SAFE INHALED DELIVERY OF TARGETED OPIOIDS FOR THE TREATMENT OF PAIN AND ADDICTION” (Somniferum Labs LLC, priority 2016, published 2018).

Legend:
[1] = room temperature
[2] = target: μ-1 opioid receptor (Homo sapiens, UniProt P35372); conditions: Wittwer and Kern, 2006
[3] = in vivo

μ-1 opioid receptor, sequence (P35372 whole entry): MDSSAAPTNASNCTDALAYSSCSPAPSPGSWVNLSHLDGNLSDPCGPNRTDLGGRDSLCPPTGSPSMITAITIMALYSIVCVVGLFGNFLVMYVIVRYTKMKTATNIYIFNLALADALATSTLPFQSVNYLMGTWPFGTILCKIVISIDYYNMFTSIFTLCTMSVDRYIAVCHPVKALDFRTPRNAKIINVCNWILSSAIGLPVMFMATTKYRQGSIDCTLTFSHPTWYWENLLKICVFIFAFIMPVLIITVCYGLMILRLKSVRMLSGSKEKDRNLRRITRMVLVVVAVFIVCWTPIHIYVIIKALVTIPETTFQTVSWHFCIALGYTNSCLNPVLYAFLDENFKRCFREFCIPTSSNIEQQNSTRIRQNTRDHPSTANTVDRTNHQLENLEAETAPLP

Compound	duration of activity [3]	also measured
Br.CN1CC[C@]23c4c5ccc(O)c4O[C@H]2[C@@H](O[C@@H]2O[C@H](C(=O)O)[C@@H](O)[C@H](O)[C@H]2O)C=C[C@H]3[C@H]1C5 [Morphine-6 glucuronide bromide]		storage time with little or no degradation [1]: up to 6 years
CN1CC[C@]23c4c5ccc(O)c4O[C@H]2[C@@H](O[C@@H]2O[C@H](C(=O)O)[C@@H](O)[C@H](O)[C@H]2O)C=C[C@H]3[C@H]1C5 [Morphine-6-glucuronide]		potency relative to morphine [2]: higher potency than morphine
CC(=O)O.CN1CCC23c4c5ccc(O)c4OC2C(OC2OC(C(=O)O)C(O)C(O)C2O)C=CC3C1C5 (stereo not shown) [morphine-6-glucuronide acetate]	relatively long duration of activity	
morphine-6-glucuronide sulfate	relatively long duration of activity	
